From patent US11207299B2, “Biphenyl sulfonamide compounds for the treatment of type IV collagen diseases” (Travere Therapeutics, Inc., priority 2018, dated 2021)
“Also recorded” adds a separate entry of the source. Marks after values point to notes of the source that are not given here.

Columns and labels:
[1] = tested on: laminin α2 in stria of Alport mice; assay: Immunofluorescence of laminin α2 in stria of Alport mice; type: in vivo, mouse; settings: losartan-treated Alport mice (10 mg/kg), early intervention study
Procedure: In the pilot study, designed to determine an optimal efficacious dose of sparsentan, Alport mice (3-4 per group) were dosed with vehicle (0.5% methylcellulose 4000 cps/0.25% Tween® 80 in distilled water) or sparsentan at 60 mg/kg or 200 mg/kg from 3 to 7 weeks of age for 28 days. Although 200 mg/kg sparsentan was efficacious in the pilot study, BUN levels were higher than those of Alport mice dosed with 60 mg/kg sparsentan (Table 1; FIG. 2A; FIG. 2B). This observation led to the selection of a 120 mg/kg dose of sparsentan to take forward into the early intervention study. During the pilot study, blood pressure (BP) was measured weekly using the CODA2 tail cuff system. […]
For the hearing study, wild-type or Alport mice were treated according to daily from 3-8.5 weeks of age by oral gavage with vehicle (0.5% methylcellulose 4000 cps/0.25% Tween® 80 in distilled water) or 120 mg/kg sparsentan or losartan at 20 mg/kg by oral gavage from 3-4 weeks of age (during weaning) and 10 mg/kg in drinking water from 4-7 weeks of age (n=5). The progression of Alport disease was assessed at 7 weeks of age by the amount of proteinuria (via urinalysis reagent strips—data not shown). […] Hearing ability and sensitivity to noise were assessed between 7 and 8 weeks of age by Auditory Brainstem Response (ABR), pre-noise exposure. […]

[2] = tested on: autosomal Alport mice (COL4A3^−/−); assay: Lifespan study in Alport mice; type: in vivo, mouse; settings: dosing as in early intervention study, continued until 10% loss of peak body weight; P<0.05
Description: (§1) Vehicle or sparsentan was given daily by oral gavage to autosomal Alport mice (COL4A3^−/−) on the 129/Sv background (male and female) in five separate studies: a pilot study, an early intervention study (treated from 3-7 weeks of age), a late intervention study (treated from 5-7 weeks of age after the onset of glomerular (GM) changes), a lifespan study, and a hearing study (FIG. 1). The early intervention, late intervention, lifespan, and hearing studies also included mice treated with a comparator, losartan, which was given orally at 3-4 weeks of age in the early intervention study, in drinking water at 4-7 weeks of age in the early intervention study, and in drinking water at 5-7 weeks in the late intervention study.
In the lifespan study, Alport mice (n=10) were dosed using the same methodology as in the early intervention study, except that dosing was continued until mice had lost 10% of their peak body weight, after which they were euthanized.
For the pilot, early intervention, late intervention, and lifespan studies, spot urine was sampled pre-study and weekly during treatment and analyzed for protein (UP) and creatinine (C) to determine proteinuria (UP/C). At the end of each study the animals were euthanized, blood samples were taken, BUN was measured from serum, and kidneys were harvested for structural and immuno-fluorescent measurements. Glomerulosclerosis was assessed by immunofluorescence (IF) using an antibody to fibronectin (FN). Visual counting of the number of sclerotic glomeruli as a proportion of the total number of glomeruli per slide was used to calculate the percentage of sclerotic glomeruli. Sections were co-stained with an anti-CD45 antibody to indicate leucocyte infiltration. Tubulointerstitial fibrosis was determined by IF of kidney sections using an antibody to collagen 1 (COL1). Tubulointerstitial fibrosis (TIF) scoring was conducted by visual assessment of the COL1 positive area as a percentage of the total cortical area and was performed blinded. […]

[3] = tested on: autosomal Alport mice (COL4A3^−/−); assay: Late intervention study in Alport mice (treated from 5-7 weeks of age); type: in vivo, mouse
Description: as §1
(§2) Efficacy renal endpoints included blood urea nitrogen (BUN), proteinuria (urine protein to creatinine ratio, or UP/C), glomerulosclerosis, tubulointerstitial fibrosis, leucocyte infiltration, and glomerular basement morphology (GBM) using transmission electron microscopy (TEM). Endpoints in the inner ear included auditory brain stem response (ABR) threshold as a measure of noise-induced hearing loss, strial capillary basement membrane thickness, and inner ear pathology by TEM.
In the late intervention study, wild-type or Alport mice (8 mice per group) were dosed for 14 days according to the same methods used in the early intervention study but beginning at 5 weeks of age, i.e., dosed with vehicle, 120 mg/kg of sparsentan, or 10 mg/kg losartan starting at 5 weeks of age for 14 days. In this study, untreated Alport mice at 5 weeks of age were also used as baseline controls.
(§3) For the pilot, early intervention, late intervention, and lifespan studies, spot urine was sampled pre-study and weekly during treatment and analyzed for protein (UP) and creatinine (C) to determine proteinuria (UP/C). At the end of each study the animals were euthanized, blood samples were taken, BUN was measured from serum, and kidneys were harvested for structural and immuno-fluorescent measurements. Glomerulosclerosis was assessed by immunofluorescence (IF) using an antibody to fibronectin (FN). Visual counting of the number of sclerotic glomeruli as a proportion of the total number of glomeruli per slide was used to calculate the percentage of sclerotic glomeruli. Sections were co-stained with an anti-CD45 antibody to indicate leucocyte infiltration. Tubulointerstitial fibrosis was determined by IF of kidney sections using an antibody to collagen 1 (COL1). Tubulointerstitial fibrosis (TIF) scoring was conducted by visual assessment of the COL1 positive area as a percentage of the total cortical area and was performed blinded. The fibrosis scoring (“Fibrosis Score”) was categorized according to visual judgment of percentage of total cortical area, as: 0=<5%, 1=5-10%, 2=10-25%, 3=25-50%, 4=50-75%, or 5=75-100%. Ultrastructural changes in GBM and podocyte morphology were observed using transmission electron microscopy (TEM).
For a baseline comparison for late intervention, glomerulosclerosis and fibrosis were determined in kidney samples taken from 5-week-old untreated Alport mice.

[4] = tested on: autosomal Alport mice (COL4A3^−/−); assay: Early intervention study in Alport mice (treated from 3-7 weeks of age); type: in vivo, mouse
Description: as §1, §2
In the early intervention study, wild-type and Alport mice were dosed daily by oral gavage with vehicle or sparsentan at 120 mg/kg from 3 to 7 weeks of age (7-8 mice per group), or with losartan at 20 mg/kg by oral gavage from 3-4 weeks of age (during weaning) and 10 mg/kg in drinking water from 4-7 weeks of age.
as §3

[5] = tested on: autosomal Alport mice (COL4A3^−/−); assay: Hearing study in Alport mice (ABR, noise exposure, strial capillary basement membrane TEM); type: in vivo, mouse
Description: as §1, §2
For the hearing study, wild-type or Alport mice were treated according to daily from 3-8.5 weeks of age by oral gavage with vehicle (0.5% methylcellulose 4000 cps/0.25% Tween® 80 in distilled water) or 120 mg/kg sparsentan or losartan at 20 mg/kg by oral gavage from 3-4 weeks of age (during weaning) and 10 mg/kg in drinking water from 4-7 weeks of age (n=5). The progression of Alport disease was assessed at 7 weeks of age by the amount of proteinuria (via urinalysis reagent strips—data not shown). Strial capillary basement membrane (SCBM) width was analyzed by transmission electron microscopy (TEM), and accumulation of extracellular matrix (ECM) in SCBM was determined by immunofluorescence (IF) microscopy using an antibody to laminin α2. Hearing ability and sensitivity to noise were assessed between 7 and 8 weeks of age by Auditory Brainstem Response (ABR), pre-noise exposure. A subset of each treatment group was then exposed to a metabolic noise stress for 10 hours. Mice receiving the noise treatment were randomly selected for overstimulation with a 106 dB sound pressure level (SPL), narrow band noise (8-16 kHz) for 10 hours, usually 10 PM to 8 AM. The noise exposure was conducted in a sound-isolation booth. A speaker was suspended from the ceiling. Wire cages with individual compartments were located midway between the floor and speaker. Mice were hydrated prior to placement in the cage and were provided free access to food. The noise exposure occurred at 8 weeks of age. The amount of hearing loss caused by the metabolic noise exposure was determined 5 days post-exposure.

[6] = tested on: murine models of Alport syndrome; settings: cited from earlier work; for Glomerulosclerosis and interstitial fibrosis in murine models of Alport syndrome: literature (Dufek et al. 2016; Gross et al. 2003)
[7] = Alport mice late intervention, losartan 10 mg/kg, mean ± SD
[8] = Alport mice, losartan 20/10 mg/kg, at 7 wk of age, mean ± SD

CCCCc1nc(Cl)c(CO)n1Cc1ccc(-c2ccccc2-c2nnn[nH]2)cc1 [losartan, Losartan, reference compound]
Accumulation of laminin α2 in stria [1]: did not appear different from vehicle-treated Alport mice | Lifespan compared to vehicle-treated Alport mice [2]: significantly longer; also recorded: significantly greater | UP/C ([3]; Alport mice late intervention, losartan 10 mg/kg for 14 days from 5 wk of age, mean ± SD, n = 8): 18.1 ± 4.6 mg/mg | BUN [3, 7]: 15.5 ± 3.4 mg/dL | GS (% Sclerotic glomeruli) [3, 7]: 16.0 ± 11.9*^$ % | TIF ([3]; Alport mice late intervention, losartan 10 mg/kg, tubulointerstitial fibrosis score, mean ± SD): 1.0 ± 1.2 | UP/C and fibrosis vs. vehicle-treated Alport mice ([3]; losartan 10 mg/kg, late intervention): not significant | Attenuation of BUN and glomerulosclerosis vs. vehicle-treated Alport mice ([3]; losartan 10 mg/kg, late intervention, P<0.05): significant | Development of fibrosis, CD45^+ leucocyte infiltration, and glomerulosclerosis ([3]; sparsentan 120 mg/kg or losartan 10 mg/kg, 5-7 weeks of age): attenuated; also recorded: prevented | UP/C ([4]; Alport mice, losartan 20/10 mg/kg from 3 wk, at 4 wk of age, mean ± SD, n = 8): 0.6 ± 1.3 mg/mg | UP/C ([4]; Alport mice, losartan 20/10 mg/kg, at 5 wk of age, mean ± SD): 6.7 ± 4.0 mg/mg | UP/C ([4]; Alport mice, losartan 20/10 mg/kg, at 6 wk of age, mean ± SD): 11.2 ± 5.7 mg/mg | BUN [4, 8]: 18.2 ± 3.5 mg/dL | Sclerotic Glomeruli (%) [4, 8]: 1.7 ± 3.3 % | UP/C [4, 8]: 11.5 ± 7.0 mg/mg | Fibrosis Score ([4]; Alport mice, losartan 20/10 mg/kg, at 7 wk, score 0=<5% to 5=75-100% COL1 area, mean ± SD): 0.0 ± 0.0 | Development of nephropathy in Alport mice ([4]; sparsentan 120 mg/kg 28 days or losartan 20 mg/kg 7 days then 10 mg/kg 21 days, from 3 weeks of age): prevented | UP/C, BUN, glomerulosclerosis, and fibrosis vs. vehicle-treated Alport mice ([4]; sparsentan 120 mg/kg or losartan 20/10 mg/kg from 3 weeks of age, P<0.05): significant attenuation | TIF or glomerulosclerosis ([4]; sparsentan- or losartan-treated Alport mice, early intervention): little to no | Hearing ability before noise exposure (ABR) ([5]; 7-8-week-old mice, sparsentan 120 mg/kg or losartan 20/10 mg/kg): did not differ significantly | Increase in strial capillary basement membrane width observed in vehicle-treated Alport mice ([5]; Alport mice treated 3-8.5 weeks of age with sparsentan or losartan): prevented | mean SCBM width±SD ([5]; Alport mice, losartan 20/10 mg/kg from 3 weeks of age, TEM, n=5): 55.0±5.9 nm | Hearing loss after noise exposure vs vehicle-treated Alport mice ([5]; any frequency tested, losartan 20/10 mg/kg): no significant effect; also recorded: no significant difference | Stria vascularis pathology by TEM ([5]; treated Alport mice, FIGS. 14-23): variable pathology

CCOC(=O)[C@H](CCc1ccccc1)N[C@@H](C)C(=O)N1[C@H](C(=O)O)C[C@@H]2CCC[C@@H]21 [ramipril]
Glomerulosclerosis and interstitial fibrosis in murine models of Alport syndrome [6]: ameliorate

Cc1cc2c(cc1CC(=O)c1sccc1S(=O)(=O)Nc1onc(C)c1Cl)OCO2 [sitaxentan]
Glomerulosclerosis and interstitial fibrosis in murine models of Alport syndrome [6]: ameliorate | Basement membrane in the cochlea of the ear in Alport mice ([6]; literature (Meehan et al. 2016)): protect
